Values quoted from earlier work in patent US7060695B2, “Method to prevent vision loss” (QLT, Inc., priority 2001, dated 2006).

Test system: CNV
Conditions: approved protocol, re-treatment as frequently as every three months if CNV leakage

## verteporfin
  closure of neovasculature: closes neovasculature
  loss of visual acuity compared to placebo controls: prevents loss of visual acuity compared to placebo controls
